The subject of one data set is Phakopsora pachyrhizi. The data set can be described thus: Phakopsora pachyrhizi / soybean / leaf disc preventative (Asian soybean rust). In kind it is in vivo. The conditions noted are these: foliar, 200 ppm in the applied formulation, soybean leaf disks, inoculated one day after application, assessed 12 to 14 days after application, read-out: disease control compared to untreated control leaf disks. The procedure:
(§1) Leaf disks or leaf segments of various plant species are cut from plants grown in a greenhouse. The cut leaf disks or segments are placed in multiwell plates (24-well format) onto water agar. The leaf disks are sprayed with a test solution before (preventative) or after (curative) inoculation. Compounds to be tested are prepared as DMSO solutions (max. 10 mg/ml) which are diluted to the appropriate concentration with 0.025% Tween20 just before spraying. The inoculated leaf disks or segments are incubated under defined conditions (temperature, relative humidity, light, etc.) according to the respective test system. A single evaluation of disease level is carried out 3 to 14 days after inoculation, depending on the pathosystem. Percent disease control relative to the untreated check leaf disks or segments is then calculated.
Soybean leaf disks are placed on water agar in multiwell plates (24-well format) and sprayed with the formulated test compound diluted in water. One day after application leaf discs are inoculated by spraying a spore suspension on the lower leaf surface. After an incubation period in a climate cabinet of 24-36 hours in darkness at 20° C. and 75% rh leaf disc are kept at 20° C. with 12 h light/day and 75% rh. The activity of a compound is assessed as percent disease control compared to untreated when an appropriate level of disease damage appears in untreated check leaf disks (12 to 14 days after application).
(§2) The following compounds at 200 ppm in the applied formulation give at least 80% disease control in this test when compared to untreated control leaf disks under the same conditions, which show extensive disease development.

In data set [1] the test system is Glomerella lagenarium (Colletotrichum lagenarium). The data set can be described thus: Glomerella lagenarium (Colletotrichum lagenarium) liquid culture / cucumber / preventative (anthracnose). Type of data set: cell-based. To be noted: Colletotrichum orbiculare; 20 ppm in the applied formulation; liquid culture in PDB, 24° C.; 3 to 4 days after application; read-out: disease control compared to untreated control (inhibition of growth measured photometrically). Here is the method: Mycelia fragments or conidia suspensions of a fungus prepared either freshly from liquid cultures of the fungus or from cryogenic storage, are directly mixed into nutrient broth. DMSO solutions of the test compound (max. 10 mg/ml) are diluted with 0.025% Tween20 by a factor of 50 and 10 μl of this solution is pipetted into a microtiter plate (96-well format). The nutrient broth containing the fungal spores/mycelia fragments is then added to give an end concentration of the tested compound. The test plates are incubated in the dark at 24° C. and 96% relative humidity. The inhibition of fungal growth is determined photometrically after 2 to 7 days, depending on the pathosystem, and percent antifungal activity relative to the untreated check is calculated.
Conidia of the fungus from cryogenic storage are directly mixed into nutrient broth (PDB—potato dextrose broth). After placing a (DMSO) solution of test compound into a microtiter plate (96-well format), the nutrient broth containing the fungal spores is added. The test plates are incubated at 24° C. and the inhibition of growth is measured photometrically 3 to 4 days after application.
The following compounds at 20 ppm in the applied formulation give at least 80% disease control in this test when compared to untreated control under the same conditions, which show extensive disease development.

For data set [2], the system named is Puccinia recondita f. Sp. Tritici. Briefly: Puccinia recondita f. sp. tritici / wheat / leaf disc curative (brown rust). In kind it is in vivo. The conditions noted are these: foliar, 200 ppm in the applied formulation, wheat leaf segments cv. Kanzler, applied 1 day after inoculation, assessed 6 to 8 days after application, read-out: disease control compared to untreated control leaf disks. The procedure:
as §1
Wheat leaf segments cv. Kanzler are placed on agar in multiwell plates (24-well format). The leaf segments are then inoculated with a spore suspension of the fungus. Plates were stored in darkness at 19° C. and 75% relative humidity. The formulated test compound diluted in water was applied 1 day after inoculation. The leaf segments were incubated at 19° C. and 75% relative humidity under a light regime of 12 hours light/12 hours darkness in a climate cabinet and the activity of a compound was assessed as percent disease control compared to untreated when an appropriate level of disease damage appears in untreated check leaf segments (6 to 8 days after application).
as §2

For data set [3] the test system is unchanged. Briefly: Puccinia recondita f. sp. tritici / wheat / leaf disc preventative (brown rust). Type of data set: in vivo. The conditions noted are these: foliar, 200 ppm in the applied formulation, wheat leaf segments cv. Kanzler, inoculated 1 day after application, assessed 7 to 9 days after application, read-out: disease control compared to untreated control leaf disks. The procedure:
as §1, with “calculated. Wheat leaf segments cv. Kanzler were placed on agar in multiwell plates (24-well format) and sprayed with the formulated test compound diluted in water. The leaf disks were inoculated with a spore suspension of the fungus 1 day after application. The inoculated leaf segments were incubated at 19° C. and 75% relative humidity (rh) under a light regime of 12 hours light/12 hours darkness in a climate cabinet and the activity of a compound was assessed as percent disease control compared to untreated when an appropriate level of disease damage appears in untreated check leaf segments (7 to 9 days after application). The following compounds at 200 ppm in the applied formulation give at least 80% disease control in this test when compared to untreated control leaf disks under the same conditions, which show extensive disease development.” for “calculated.”

Molecules are shown by their SMILES. Where “and” joins values, the source holds several entries; their conditions need not be identical. Equal entries are not always repeated.

The inhibition is how much of the control response was suppressed. What is called melting point is the temperature of the solid-liquid transition. `FC(F)(F)c1nc(-c2ccc(Sc3ccccc3)nc2)no1` [Compound 1.7, 3-(6-phenylsulfanyl-3-pyridyl)-5-(trifluoromethyl)-1,2,4-oxadiazole] displayed a melting point of 124 to 129 °C. Also, the pest or weed control at 200 ppm with Phakopsora pachyrhizi was at least 80%. Also, the inhibition at 20 ppm in data set [1] is at least 80%. In addition, the pest or weed control at 200 ppm in data set [2] was at least 80%.

Take `CCC(C)C[S+]([O-])c1ccc(-c2noc(C(F)(F)F)n2)cc1` (stereo not drawn) [Compound 2.22, 3-[4-(2-methylbutylsulfinyl)phenyl]-5-(trifluoromethyl)-1,2,4-oxadiazole]: the melting point lay within 38 to 43 °C. Besides, the pest or weed control at 200 ppm with Phakopsora pachyrhizi was at least 80%. Besides, the inhibition at 20 ppm in data set [1] was at least 80%. Moreover, the pest or weed control at 200 ppm in data set [2] is at least 80%.

Compound `COc1ccc(S(=O)(=O)c2ccc(-c3noc(C(F)(F)F)n3)cc2)cc1` [Compound 3.2, 3-[4-(4-methoxyphenyl)sulfonylphenyl]-5-(trifluoromethyl)-1,2,4-oxadiazole] showed a melting point of 108 to 116 °C. Also, the pest or weed control at 200 ppm with Phakopsora pachyrhizi is at least 80%. For the same compound, in data set [1], the inhibition at 20 ppm is at least 80%. The pest or weed control at 200 ppm in data set [3] was at least 80%.

`Cc1ccccc1[S+]([O-])c1ccc(-c2noc(C(F)(F)F)n2)cn1` (stereo not drawn) [Compound 2.25, 3-[6-(o-tolylsulfinyl)-3-pyridyl]-5-(trifluoromethyl)-1,2,4-oxadiazole]: the melting point lay within 103 to 105 °C. The pest or weed control at 200 ppm in the data set on Phakopsora pachyrhizi is at least 80%. For the same compound, the inhibition at 20 ppm in data set [1] is at least 80%. In addition, the pest or weed control at 200 ppm in data set [3] was at least 80%.

Regarding `Fc1ccccc1SCc1ccc(-c2noc(C(F)(F)F)n2)cc1` [Compound 1.15, 3-[4-[(2-fluorophenyl)sulfanylmethyl]phenyl]-5-(trifluoromethyl)-1,2,4-oxadiazole], the melting point is 56 to 61 °C. For the same compound, the pest or weed control at 200 ppm in the data set on Phakopsora pachyrhizi is at least 80%. Further, in data set [2], the pest or weed control at 200 ppm was at least 80%.

Take `Cc1ccc(C)c([S+]([O-])c2ccc(-c3noc(C(F)(F)F)n3)cc2)c1` (stereo not drawn) [Compound 2.7, 3-[4-(2,5-dimethylphenyl)sulfinyl-phenyl]-5-(trifluoromethyl)-1,2,4-oxadiazole]: the melting point fell in the range of 103 to 109 °C. Besides, the pest or weed control at 200 ppm in the data set on Phakopsora pachyrhizi is at least 80%. For the same compound, in data set [1], the inhibition at 20 ppm was at least 80%. Besides, the pest or weed control at 200 ppm in data set [3] was at least 80%.

`[O-][S+](c1ccc(-c2noc(C(F)(F)F)n2)cc1)c1cccc(F)c1` (stereo not drawn) [Compound 2.20, 3-[4-(3-fluorophenyl)sulfinylphenyl]-5-(trifluoromethyl)-1,2,4-oxadiazole] displayed a melting point of 103 to 111 °C. Moreover, in the data set on Phakopsora pachyrhizi, the pest or weed control at 200 ppm is at least 80%. For the same compound, the inhibition at 20 ppm in data set [1] was at least 80%. Moreover, the pest or weed control at 200 ppm in data set [3] was at least 80%.

As to `O=S(=O)(c1ccccc1)c1ccc(-c2noc(C(F)(F)F)n2)cn1` [Compound 3.7, 3-[6-(benzenesulfonyl)-3-pyridyl]-5-(trifluoromethyl)-1,2,4-oxadiazole], the melting point was 124 to 127 °C and 124 to 129 °C. Also, the pest or weed control at 200 ppm with Phakopsora pachyrhizi is at least 80%. Further, in data set [1], the inhibition at 20 ppm was at least 80%. Besides, the pest or weed control at 200 ppm in data set [3] is at least 80%.

Regarding `[O-][S+](c1ccc(-c2noc(C(F)(F)F)n2)cc1)c1ccccc1F` (stereo not drawn) [Compound 2.18, 3-[4-(2-fluorophenyl)sulfinylphenyl]-5-(trifluoromethyl)-1,2,4-oxadiazole], the melting point fell in the range of 116 to 121 °C. Also, the pest or weed control at 200 ppm in the data set on Phakopsora pachyrhizi was at least 80%. In data set [1], the inhibition at 20 ppm was at least 80%. In data set [3], the pest or weed control at 200 ppm is at least 80%.

As for `O=S(=O)(c1ccc(-c2noc(C(F)(F)F)n2)cc1)c1cccc(F)c1` [Compound 3.14, 3-[4-(3-fluorophenyl)sulfonylphenyl]-5-(trifluoromethyl)-1,2,4-oxadiazole], the melting point was 136 to 143 °C. Moreover, the pest or weed control at 200 ppm with Phakopsora pachyrhizi is at least 80%. In addition, the inhibition at 20 ppm in data set [1] is at least 80%. Also, the pest or weed control at 200 ppm in data set [3] was at least 80%.

The values above are taken from patent US20180319753A1, “MICROBIOCIDAL OXADIAZOLE DERIVATIVES” (SYNGENTA PARTICIPATIONS AG, priority 2015, published 2018).
